Where two headings read alike, the source gives them in different places.
Tests used:
female ob/OB mice = assay: glucagon mediated increase in blood glucose in mice; assay type: in vivo; conditions: for Delta plasma glucose: glucagon s.c., female ob/OB mice fasted 3 hours, averages ± S.D., N = 5, control 6.3 ± 1.0; for reduction of blood glucose (in words): glucagon mediated increase in blood glucose in mice, Table 1
Experimental: For in vivo studies, female ob/OB mice (20 g) fasted for 3 hours were used. Test compounds or NaCl (0.9%; controls) were administered intraveneously (hereinafter designated i.v.). Glucagon were administered subcutaneously (herein-after designated s.c.) in order to increase hepatic glucose output derived from glycogen. Blood samples were drawn from the orbital vain and analyzed for glucose using a glucose oxidase method.

α-1,6-glucosidase [1] = target: T1, α-1,6-glucosidase (Homo sapiens, UniProt P35573); assay: activity of the glycogen debranching enzyme, α-1,6-glucosidase; assay type: biochemical; conditions: read-out: 1,6-glucosidase, concentration resulting in half maximal activity (I.C.50)
Experimental: The activity of the glycogen debranching enzyme, α-1,6-glucosidase, was determined as described by Brown and Brown (1966; in : Meth. in Enzymology, 8, 515-524, Neufeld and Ginsburg (Eds.) Academic Press).

Phosphorylase = target: T2, Phosphorylase (Rattus norvegicus, UniProt P09811); assay: activity of phosphorylase; assay type: biochemical; conditions: read-out: Phosphorlyase, concentration resulting in half maximal activity (I.C.50)
T2 sequence (P09811 2-850): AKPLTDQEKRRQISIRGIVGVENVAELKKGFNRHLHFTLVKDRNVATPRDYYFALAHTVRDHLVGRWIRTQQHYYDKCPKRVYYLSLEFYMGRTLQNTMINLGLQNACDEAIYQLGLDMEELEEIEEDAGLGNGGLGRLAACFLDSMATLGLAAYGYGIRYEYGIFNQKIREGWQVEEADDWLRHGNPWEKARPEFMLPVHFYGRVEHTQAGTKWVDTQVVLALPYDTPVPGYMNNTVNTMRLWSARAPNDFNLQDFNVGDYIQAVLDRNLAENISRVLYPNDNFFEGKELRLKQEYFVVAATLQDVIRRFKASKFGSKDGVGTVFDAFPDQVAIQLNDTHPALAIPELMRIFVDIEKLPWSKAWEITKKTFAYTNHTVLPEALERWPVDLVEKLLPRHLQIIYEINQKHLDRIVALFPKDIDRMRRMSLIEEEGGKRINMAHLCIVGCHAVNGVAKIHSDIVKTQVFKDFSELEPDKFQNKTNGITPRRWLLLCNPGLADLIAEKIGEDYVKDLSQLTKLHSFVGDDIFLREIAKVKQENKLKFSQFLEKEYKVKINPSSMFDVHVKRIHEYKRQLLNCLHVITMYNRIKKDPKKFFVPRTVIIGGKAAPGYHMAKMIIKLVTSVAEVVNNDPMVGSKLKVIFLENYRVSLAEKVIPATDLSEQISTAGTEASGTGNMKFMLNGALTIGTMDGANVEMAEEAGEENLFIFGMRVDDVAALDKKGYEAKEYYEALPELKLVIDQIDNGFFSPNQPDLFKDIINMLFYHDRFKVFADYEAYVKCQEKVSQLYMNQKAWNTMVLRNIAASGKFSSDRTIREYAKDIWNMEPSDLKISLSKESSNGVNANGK
Experimental: Phosphorylase was either purchased from Sigma or extracted from rat livers according to Stalmans et. al. (Eur.J.Biochem. 49 (1974), 415). The activity of phosphorylase was determined as described by Bergmeyer (1983; in: Meth. of Enzymatic Analysis, 2, 293-295, Weinheim, (ed.) Verlag Chemie).

Rat hepatocytes = assay: baseline and glucagon stimulated glucose production from cultured liver cells; assay type: cell-based; conditions: for Glucose production without glucagon: relative to the basal glucose production (no addition 100%); for Glucose production without glucagon / Glucose production with glucagon (0.5 nM): 70 minutes; for Glucose production with glucagon (0.5 nM): relative to the basal glucose production (no addition 233%); for inhibition of hepatocyte glucose production (in words): basal and glucagon stimulated
Experimental: During the last 24 hours, the hepatocytes were cultured in the presence of high levels of insulin (5 nM) and glucose (15 mM), which result in the incorporation of glucose into glycogen. Therefore, at the time of the experiment, the cells mimic livers from fed animals. Experiments were initiated after 48 hours of culture by 2 times wash of cells and addition of a 20 mM HEPES experimental buffer including balanced salts, but without glucose. The test compound was added simultaneously with the experimental buffer. To some cultures, glucagon (0.5 nM) was added after 10 minutes in order to stimulate glucose production from liver cells. The glucose released into the media, reflecting the glucose production of the liver cells, was measured 70 minutes after the start of the experiment and standardized to cellular DNA content.

type 2 diabetic patients = conditions: Sels et al. (Netherland J.Med. 44 (1994), 198); cited from earlier work
α-1,6-glucosidase [2] = target: T1, α-1,6-glucosidase; conditions: From: Fleet et al. (Tetrahedron 20 (1986), 5685); read-out: 1,6-glucosidase, concentration resulting in half maximal activity (I.C.50); cited from earlier work

T1 sequence (P35573 whole entry): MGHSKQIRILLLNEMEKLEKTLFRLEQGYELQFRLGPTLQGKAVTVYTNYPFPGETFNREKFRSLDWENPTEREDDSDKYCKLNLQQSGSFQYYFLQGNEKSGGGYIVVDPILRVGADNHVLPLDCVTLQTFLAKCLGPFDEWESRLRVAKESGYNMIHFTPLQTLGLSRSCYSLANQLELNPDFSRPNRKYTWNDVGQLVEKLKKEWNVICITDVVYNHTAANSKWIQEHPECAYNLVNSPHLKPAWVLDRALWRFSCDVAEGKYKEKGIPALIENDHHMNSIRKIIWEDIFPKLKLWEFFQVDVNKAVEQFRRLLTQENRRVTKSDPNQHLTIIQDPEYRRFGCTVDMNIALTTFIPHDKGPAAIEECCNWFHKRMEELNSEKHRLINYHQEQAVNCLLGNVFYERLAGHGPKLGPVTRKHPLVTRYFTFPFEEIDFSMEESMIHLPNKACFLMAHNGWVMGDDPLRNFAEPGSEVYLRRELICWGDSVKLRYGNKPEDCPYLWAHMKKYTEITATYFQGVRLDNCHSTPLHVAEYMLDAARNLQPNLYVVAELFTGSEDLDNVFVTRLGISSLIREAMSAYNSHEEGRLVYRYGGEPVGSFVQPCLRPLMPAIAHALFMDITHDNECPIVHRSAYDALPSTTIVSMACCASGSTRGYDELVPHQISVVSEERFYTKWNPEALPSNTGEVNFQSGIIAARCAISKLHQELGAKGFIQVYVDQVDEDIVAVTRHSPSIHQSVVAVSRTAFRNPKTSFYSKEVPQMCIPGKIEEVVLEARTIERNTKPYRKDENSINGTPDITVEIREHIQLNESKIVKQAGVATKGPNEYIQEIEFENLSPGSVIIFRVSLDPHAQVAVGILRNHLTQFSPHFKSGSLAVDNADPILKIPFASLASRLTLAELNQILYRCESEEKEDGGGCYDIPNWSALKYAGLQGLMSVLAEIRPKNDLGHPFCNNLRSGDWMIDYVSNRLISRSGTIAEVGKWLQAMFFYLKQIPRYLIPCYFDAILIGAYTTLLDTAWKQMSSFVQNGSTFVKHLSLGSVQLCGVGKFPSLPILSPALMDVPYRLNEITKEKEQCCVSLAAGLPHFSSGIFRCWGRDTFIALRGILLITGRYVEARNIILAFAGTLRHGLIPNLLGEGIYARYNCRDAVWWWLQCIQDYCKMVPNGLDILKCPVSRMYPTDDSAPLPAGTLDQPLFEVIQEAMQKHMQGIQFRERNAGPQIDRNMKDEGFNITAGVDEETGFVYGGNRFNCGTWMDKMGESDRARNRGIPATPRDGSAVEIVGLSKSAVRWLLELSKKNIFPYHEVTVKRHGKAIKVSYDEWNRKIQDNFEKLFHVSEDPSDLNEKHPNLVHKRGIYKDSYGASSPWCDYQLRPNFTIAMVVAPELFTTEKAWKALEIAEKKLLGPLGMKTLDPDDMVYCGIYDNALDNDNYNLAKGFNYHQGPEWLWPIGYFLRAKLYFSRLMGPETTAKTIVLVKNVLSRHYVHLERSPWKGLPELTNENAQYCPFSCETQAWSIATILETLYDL

IC50 (α-1,6-glucosidase [1]) [µM]	IC50 (Phosphorylase) [µM]	SMILES	Delta plasma glucose (female ob/OB mice; 50 mg/kg i.v.) [mmol/L]	reduction of blood glucose (in words) (female ob/OB mice)	Glucose production without glucagon (Rat hepatocytes; 50 μM) [%]	Glucose production with glucagon (0.5 nM) (Rat hepatocytes; 50 μM) [%]	inhibition of hepatocyte glucose production (in words) (Rat hepatocytes)	fasting plasma glucose after treatment (in words) (type 2 diabetic patients)	Delta plasma glucose (female ob/OB mice; 8 mg/kg i.v.) [mmol/L]	Glucose production without glucagon (Rat hepatocytes; 1 μM) [%]	Glucose production with glucagon (0.5 nM) (Rat hepatocytes; 1 μM) [%]	IC50 (α-1,6-glucosidase [2]) [µM]
1.1	> 200	OC[C@H]1NC[C@H](O)[C@@H](O)[C@@H]1O [dNOJ, 1-deoxynojirimycin]	5.7 ± 1.2	unable to reduce blood glucose	92	195	insufficient to suppress hepatic glucose production					
		OCCN1C[C@H](O)[C@@H](O)[C@H](O)[C@H]1CO [miglitol]						not reduced				
		Cl.OC[C@H]1NC[C@@H](O)[C@@H]1O [Compound 2, (2R,3R,4R)-3,4-Dihydroxy-2-(hydroxymethyl)pyrrolidine, hydrochloride]		potent principle for reducing blood glucose			inhibit basal and glucagon stimulated hepatocyte glucose production		0.5 ± 0.6	19	41	0.18

Source: patent US6451836B1, “Method of inhibiting liver glycogen phosphorylase with 2-alkylpyrrolidines” (Novo Nordisk A/S, priority 1995, dated 2002)
